Measurements taken from patent US11377427B2, “Triazoles for regulating intracellular calcium homeostasis” (UNIVERSIDAD DEL PAIS VASCO, priority 2016, dated 2022).

Assays:
[1] = system: human control myotubes LHCN-M2; assay: In vitro toxicity in human myotubes, CytoTox 96 colorimetric assay; format: cell-based; settings: concentrations between 10 nM and 2 mM; 24 hours of incubation; FIG. 1
Method: These assays were carried out in human control myotubes LHCN-M2 after 14 days in differentiation medium. To determine the toxicity of the different analyzed compounds, particularly AHK1 and AHK2 according to the invention, these compounds were added to the culture medium for 24 hours at 37° C. at different concentrations (0-2 mM). For comparison purposes, the same assay was performed by adding reference compound S-107. Cell viability was determined by means of Cytotox 96 (Promega) colorimetric assay following instructions in the manual.

[2] = system: fibers isolated from mouse flexor digitorum brevis muscle (dystrophic MDX fibers); assay: Baseline intracellular calcium levels in mouse muscle fibers (Fura 2-AM); format: cell-based; settings: 150 nM, overnight treatment; FIG. 2
Method: Fibers isolated from mouse flexor digitorum brevis muscle were cultured overnight in the presence or absence of compounds AHK1 and AHK2 at a concentration of 150 nM. Baseline intracellular calcium levels were evaluated by means of incubating the fibers with Fura 2-AM ratiometric fluorochrome (4 μM) and pluronic acid (0.02%) for 30 minutes at 37° C., in the culture medium. The fibers were viewed with a high-resolution digital camera and intracellular [Ca^2+] was estimated by means of a 340 nm/380 nm excitation ratio.

[3] = biological target: T1, RyR1-calstabin1 interaction (Homo sapiens, UniProt P21817+P62942); assay: RyR1-calstabin1 interaction by in situ PLA in human myotubes under SIN1 nitro-oxidative stress; format: cell-based; settings: pre-treated 12 hours at 150 nM; SIN1 5 mM 30 minutes; FIG. 3
T1 construct: endogenous in cells; host or cells: LHCN-M2 human myotubes (differentiated for 9 days)
T1 sequence (P21817 whole entry): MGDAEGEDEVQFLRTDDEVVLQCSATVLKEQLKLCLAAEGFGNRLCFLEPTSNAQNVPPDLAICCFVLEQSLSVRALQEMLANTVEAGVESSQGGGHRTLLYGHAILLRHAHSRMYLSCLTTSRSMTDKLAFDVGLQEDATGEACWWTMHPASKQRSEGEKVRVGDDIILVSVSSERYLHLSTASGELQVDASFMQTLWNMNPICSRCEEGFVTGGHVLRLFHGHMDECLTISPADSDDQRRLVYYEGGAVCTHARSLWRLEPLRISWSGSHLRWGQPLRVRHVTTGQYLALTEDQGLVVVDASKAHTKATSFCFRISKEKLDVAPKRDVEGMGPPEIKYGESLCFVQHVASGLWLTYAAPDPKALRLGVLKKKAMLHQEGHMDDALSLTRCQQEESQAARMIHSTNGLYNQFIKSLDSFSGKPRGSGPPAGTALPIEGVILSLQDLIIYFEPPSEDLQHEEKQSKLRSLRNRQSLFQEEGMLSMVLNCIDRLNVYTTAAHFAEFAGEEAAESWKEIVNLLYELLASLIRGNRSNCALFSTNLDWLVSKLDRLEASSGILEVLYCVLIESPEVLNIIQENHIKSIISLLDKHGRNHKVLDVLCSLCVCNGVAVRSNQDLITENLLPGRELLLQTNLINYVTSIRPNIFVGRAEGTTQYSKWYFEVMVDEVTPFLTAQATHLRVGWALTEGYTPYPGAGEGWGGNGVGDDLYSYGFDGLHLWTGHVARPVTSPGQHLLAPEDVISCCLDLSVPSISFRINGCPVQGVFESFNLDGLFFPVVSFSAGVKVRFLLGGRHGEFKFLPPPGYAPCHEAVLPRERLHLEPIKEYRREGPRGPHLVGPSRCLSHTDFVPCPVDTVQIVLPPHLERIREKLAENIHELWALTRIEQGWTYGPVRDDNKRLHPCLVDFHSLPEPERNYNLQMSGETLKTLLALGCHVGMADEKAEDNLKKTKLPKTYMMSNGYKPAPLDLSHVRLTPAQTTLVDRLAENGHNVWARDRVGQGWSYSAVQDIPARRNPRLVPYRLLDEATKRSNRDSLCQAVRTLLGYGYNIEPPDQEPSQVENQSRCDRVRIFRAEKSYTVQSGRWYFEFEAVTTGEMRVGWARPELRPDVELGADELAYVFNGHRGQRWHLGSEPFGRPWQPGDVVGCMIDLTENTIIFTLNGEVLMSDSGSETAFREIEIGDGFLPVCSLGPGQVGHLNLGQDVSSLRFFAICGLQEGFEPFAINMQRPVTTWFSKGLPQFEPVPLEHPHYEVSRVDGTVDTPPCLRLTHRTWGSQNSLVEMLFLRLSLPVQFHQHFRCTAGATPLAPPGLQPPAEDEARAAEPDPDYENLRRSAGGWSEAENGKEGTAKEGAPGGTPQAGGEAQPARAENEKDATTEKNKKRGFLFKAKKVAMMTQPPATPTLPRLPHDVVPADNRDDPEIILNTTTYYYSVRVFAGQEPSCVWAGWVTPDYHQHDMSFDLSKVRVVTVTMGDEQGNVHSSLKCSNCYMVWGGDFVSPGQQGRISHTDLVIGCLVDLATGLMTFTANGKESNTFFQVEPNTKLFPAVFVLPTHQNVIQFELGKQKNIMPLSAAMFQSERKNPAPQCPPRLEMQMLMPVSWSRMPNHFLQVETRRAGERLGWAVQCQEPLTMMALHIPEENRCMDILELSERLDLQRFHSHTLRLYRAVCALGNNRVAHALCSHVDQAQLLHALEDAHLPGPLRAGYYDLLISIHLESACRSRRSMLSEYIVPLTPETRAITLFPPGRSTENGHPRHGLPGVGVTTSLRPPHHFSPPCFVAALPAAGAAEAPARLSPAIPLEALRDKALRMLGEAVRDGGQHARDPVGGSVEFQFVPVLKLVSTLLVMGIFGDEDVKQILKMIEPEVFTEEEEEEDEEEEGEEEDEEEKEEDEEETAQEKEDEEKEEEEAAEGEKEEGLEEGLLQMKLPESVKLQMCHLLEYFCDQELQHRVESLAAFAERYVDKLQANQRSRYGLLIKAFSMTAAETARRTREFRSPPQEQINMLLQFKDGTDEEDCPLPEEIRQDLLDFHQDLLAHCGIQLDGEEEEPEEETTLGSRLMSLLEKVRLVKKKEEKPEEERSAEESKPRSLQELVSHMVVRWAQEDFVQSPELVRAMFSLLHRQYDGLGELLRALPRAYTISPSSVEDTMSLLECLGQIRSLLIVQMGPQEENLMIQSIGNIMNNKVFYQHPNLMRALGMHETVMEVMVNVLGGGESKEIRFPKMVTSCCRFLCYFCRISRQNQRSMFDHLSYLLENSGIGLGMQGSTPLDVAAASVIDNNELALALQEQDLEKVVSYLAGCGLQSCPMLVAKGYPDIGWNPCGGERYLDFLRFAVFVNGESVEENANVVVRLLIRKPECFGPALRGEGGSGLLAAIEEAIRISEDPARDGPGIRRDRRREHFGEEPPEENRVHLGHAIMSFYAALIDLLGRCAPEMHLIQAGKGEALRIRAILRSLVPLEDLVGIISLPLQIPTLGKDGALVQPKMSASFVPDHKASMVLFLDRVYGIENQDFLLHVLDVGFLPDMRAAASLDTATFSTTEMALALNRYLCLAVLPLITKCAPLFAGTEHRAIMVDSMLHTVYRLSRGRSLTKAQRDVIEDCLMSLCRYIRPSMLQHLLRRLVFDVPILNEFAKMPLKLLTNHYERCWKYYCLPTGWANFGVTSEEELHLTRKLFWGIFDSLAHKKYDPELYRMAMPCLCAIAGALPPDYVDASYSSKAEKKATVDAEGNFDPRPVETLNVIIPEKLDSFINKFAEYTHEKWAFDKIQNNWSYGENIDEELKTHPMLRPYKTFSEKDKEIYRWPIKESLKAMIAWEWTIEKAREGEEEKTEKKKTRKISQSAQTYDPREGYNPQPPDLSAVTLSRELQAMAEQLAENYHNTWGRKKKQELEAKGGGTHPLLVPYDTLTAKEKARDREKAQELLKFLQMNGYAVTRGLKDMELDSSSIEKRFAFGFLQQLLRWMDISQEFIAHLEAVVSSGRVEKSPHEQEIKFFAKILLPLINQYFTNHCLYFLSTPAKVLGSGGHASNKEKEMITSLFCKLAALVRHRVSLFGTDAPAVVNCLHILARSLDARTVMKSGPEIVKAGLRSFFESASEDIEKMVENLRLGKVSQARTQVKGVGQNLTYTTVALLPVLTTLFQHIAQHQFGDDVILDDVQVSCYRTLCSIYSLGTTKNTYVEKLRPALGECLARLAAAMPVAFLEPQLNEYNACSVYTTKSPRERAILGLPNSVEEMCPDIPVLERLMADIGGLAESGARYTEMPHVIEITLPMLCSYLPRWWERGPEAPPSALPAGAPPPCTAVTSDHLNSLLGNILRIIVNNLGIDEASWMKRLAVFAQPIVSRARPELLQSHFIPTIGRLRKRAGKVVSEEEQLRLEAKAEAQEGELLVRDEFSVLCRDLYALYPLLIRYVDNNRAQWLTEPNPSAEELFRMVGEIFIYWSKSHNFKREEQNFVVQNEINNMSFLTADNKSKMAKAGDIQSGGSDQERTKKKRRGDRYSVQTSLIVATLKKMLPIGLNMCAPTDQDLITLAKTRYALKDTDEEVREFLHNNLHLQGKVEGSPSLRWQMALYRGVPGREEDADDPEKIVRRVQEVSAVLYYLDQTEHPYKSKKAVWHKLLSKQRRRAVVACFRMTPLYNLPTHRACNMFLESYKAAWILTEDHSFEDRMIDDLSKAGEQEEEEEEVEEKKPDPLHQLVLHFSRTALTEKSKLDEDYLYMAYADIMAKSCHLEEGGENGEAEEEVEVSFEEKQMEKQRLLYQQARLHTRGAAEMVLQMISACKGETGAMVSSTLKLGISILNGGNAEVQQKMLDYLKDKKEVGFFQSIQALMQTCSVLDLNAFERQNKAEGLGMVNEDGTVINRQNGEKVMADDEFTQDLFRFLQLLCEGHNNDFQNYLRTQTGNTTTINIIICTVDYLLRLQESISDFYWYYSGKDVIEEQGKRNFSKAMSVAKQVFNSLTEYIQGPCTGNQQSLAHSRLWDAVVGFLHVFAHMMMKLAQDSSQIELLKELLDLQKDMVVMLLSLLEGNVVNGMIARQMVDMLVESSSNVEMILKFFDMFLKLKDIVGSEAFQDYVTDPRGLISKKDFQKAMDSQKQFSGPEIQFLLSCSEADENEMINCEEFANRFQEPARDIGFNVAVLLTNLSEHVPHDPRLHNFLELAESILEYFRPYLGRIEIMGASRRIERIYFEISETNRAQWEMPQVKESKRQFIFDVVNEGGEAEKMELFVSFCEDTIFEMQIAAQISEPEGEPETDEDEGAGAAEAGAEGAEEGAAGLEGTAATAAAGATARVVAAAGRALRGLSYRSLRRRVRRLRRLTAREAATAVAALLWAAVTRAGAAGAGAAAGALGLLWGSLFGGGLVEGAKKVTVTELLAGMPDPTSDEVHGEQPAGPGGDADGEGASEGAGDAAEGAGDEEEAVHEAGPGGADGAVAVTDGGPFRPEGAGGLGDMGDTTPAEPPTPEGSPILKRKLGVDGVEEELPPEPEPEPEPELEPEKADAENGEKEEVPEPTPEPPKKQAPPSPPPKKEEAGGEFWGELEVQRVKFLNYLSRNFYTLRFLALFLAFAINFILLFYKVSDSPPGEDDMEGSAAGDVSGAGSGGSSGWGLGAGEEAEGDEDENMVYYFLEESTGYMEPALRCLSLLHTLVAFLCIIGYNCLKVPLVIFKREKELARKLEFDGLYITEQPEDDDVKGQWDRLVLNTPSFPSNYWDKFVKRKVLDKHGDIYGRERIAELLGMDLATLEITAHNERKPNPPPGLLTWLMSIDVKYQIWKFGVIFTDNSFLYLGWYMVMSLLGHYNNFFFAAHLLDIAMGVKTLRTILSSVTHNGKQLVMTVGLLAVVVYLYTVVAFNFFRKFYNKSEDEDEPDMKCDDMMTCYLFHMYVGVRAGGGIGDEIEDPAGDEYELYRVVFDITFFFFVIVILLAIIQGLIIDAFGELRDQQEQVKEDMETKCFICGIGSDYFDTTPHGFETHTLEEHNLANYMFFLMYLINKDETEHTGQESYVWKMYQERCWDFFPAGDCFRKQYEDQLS
T1 sequence (P62942 2-108 limits assumed): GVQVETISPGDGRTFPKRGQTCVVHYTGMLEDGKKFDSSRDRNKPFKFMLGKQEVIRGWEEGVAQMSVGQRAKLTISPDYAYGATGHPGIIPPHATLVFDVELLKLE
Method: This assay was carried out in human control myotubes LHCN-M2 after 9 days in differentiation medium. Said myotubes were pre-treated for 12 hours with compounds AHK1 and AHK2 at a concentration of 150 nM. After treatment, the myotubes were subjected to peroxynitrite-induced nitro-oxidative stress by means of the addition of SIN1 (5 mM) for 30 minutes. RyR1-calstabin colocalization was analyzed by means of the in situ proximity ligation technique (in situ PLA) for which Sigma's Duolink II Network Fluorescence Kit and RyR1- and calstabin 1-specific antibodies were used. This technique allows detecting the exact location of two antigens located at a distance less than 40 nm from one another. To determine RyR1-calstabin-1 colocalization, 3 photographs were quantified for each condition with about 9 myotubes per field, using Image J computer software (http://rsb.info.nih.gov/ij/download.html). The colocalization area in each image was normalized to the myosin expression area, which was determined by means of immunofluorescence with a fluorescein-conjugated specific antibody.

mdx mice [4] = assay: Grip strength of dystrophic mdx mice; format: in vivo, mouse; settings: 0.25 mg/mL in drinking water, one-month old mdx mice
Method: One-month old male dystrophic mdx mice supplied by Jackson Laboratory (https://www.jax.org/strain/001801) were used. The biological assays for measuring the effect of the Ahulken (AHK) compounds on muscle function were performed with one-month old mice, whereas the in vivo assays for determining the effect on the heart and CNS were performed with four-month old mice. The one-month old mice were treated with compound AHK1 or compound AHK2 for 5 weeks, where said compounds were administered in drinking water at a concentration of 0.25 mg/mL. The muscle strength of the front paws was measured every week using a grip strength meter and the obtained value was normalized by the body weight of the animal. To that end, the indications described in the TREAT-NMD Neuromuscular Network protocol (http://www.treat-nmd.eu/downloads/file/sops/dmd/MDX/DMD_M.2.2.001.pdf) were followed.

mdx mice [5] = assay: Muscle degeneration/regeneration: percentage of central nuclei in muscle cryosections of mdx mice; format: in vivo, mouse; settings: 5-week treatment of mdx mice; 0.25 mg/mL in drinking water; FIG. 5
Method: After concluding the 5-week treatment, the tibialis anterior muscle was obtained and processed for subsequent biochemical and immunohistological analysis to determine the degree of muscle damage. Cell-death derived regeneration was determined in muscle cryosections by means of quantifying the percentage of central nuclei using standard immunofluorescence techniques for detecting collagen IV and cell nuclei.

[6] = system: tibialis anterior muscle of mdx mice; assay: Gene expression pattern of tibialis anterior muscle of mdx mice (RT Profiler PCR Array); format: in vivo, mouse
Method: In turn, the biochemical analysis of the tibialis anterior muscle was performed by means of RNA extraction and expression pattern analysis in control mice, mdx mice and mice subjected to different treatments. To that end, the […] skeletal muscle, myogenesis and myopathy RT Profiler PCR Array (PAHS-099Z, QIAGEN) was used, using cDNA mixtures of at least 3 mice per group. The expression profile of 84 genes involved in physiopathological mechanisms of the skeletal muscle was thus analyzed. The experiments were conducted in 7300 Real-Time PCR equipment (Applied Biosystems) and the results obtained were analyzed using QIAGEN online software (http://www.sabiosciences.com/dataanalysis.php).

SMILES: COc1cccc(SCc2cn(CC(=O)O)nn2)c1 [AHK1, 1-carboxymethyl-4-[3-(methoxy)phenylthiomethyl]-1H-1,2,3-triazole]
- in vitro acute toxicity against human myotubes [1]: do not show in vitro acute toxicity
- intracellular calcium levels at rest in MDX fibers [2]: brought intracellular calcium levels back to the control levels
- dissociation of the RyR1-Calst1 complex in the presence of SIN1 [3]: partially prevented
- grip strength compared to untreated littermates (mdx mice [4]; after 2 weeks of treatment): increased significantly
- increase of muscle strength (mdx mice [4]; after 5 weeks of treatment, FIG. 4): 20%
- percentage of central nuclei (mdx mice [5]): significantly reduced
- Ratio of change vs. control, Akt1 ([6]; gene Akt1, MDX + AHK1, 5 weeks, tibialis anterior, untreated MDX 2.63): 1.42
- Ratio of change vs. control, Bcl2 ([6]; gene Bcl2, MDX + AHK1, 5 weeks, tibialis anterior, untreated MDX 1.94): 1.05
- Ratio of change vs. control, Bmp4 ([6]; gene Bmp4, MDX + AHK1, 5 weeks, tibialis anterior, untreated MDX 1.93): 2.08
- Ratio of change vs. control, Capn2 ([6]; gene Capn2, MDX + AHK1, 5 weeks, tibialis anterior, untreated MDX 2.90): 1.75
- Ratio of change vs. control, Casp3 ([6]; gene Casp3, MDX + AHK1, 5 weeks, tibialis anterior, untreated MDX 10.28): 5.27
- Ratio of change vs. control, Cast ([6]; gene Cast, MDX + AHK1, 5 weeks, tibialis anterior, untreated MDX 1.86): 1.49
- Ratio of change vs. control, Cav3 ([6]; gene Cav3, MDX + AHK1, 5 weeks, tibialis anterior, untreated MDX 3.28): 1.68
- Ratio of change vs. control, Cryab ([6]; gene Cryab, MDX + AHK1, 5 weeks, tibialis anterior, untreated MDX 3.08): 1.50
- Ratio of change vs. control, Ctnnb1 ([6]; gene Ctnnb1, MDX + AHK1, 5 weeks, tibialis anterior, untreated MDX 1.79): 1.27
- Ratio of change vs. control, Dag1 ([6]; gene Dag1, MDX + AHK1, 5 weeks, tibialis anterior, untreated MDX 2.27): 1.23
- Ratio of change vs. control, Des ([6]; gene Des, MDX + AHK1, 5 weeks, tibialis anterior, untreated MDX 2.14): 1.53
- Ratio of change vs. control, Dysf ([6]; gene Dysf, MDX + AHK1, 5 weeks, tibialis anterior, untreated MDX 2.15): 1.28
- Ratio of change vs. control, Foxo3 ([6]; gene Foxo3, MDX + AHK1, 5 weeks, tibialis anterior, untreated MDX 1.76): 1.14
- Ratio of change vs. control, Igf1 ([6]; gene Igf1, MDX + AHK1, 5 weeks, tibialis anterior, untreated MDX 2.87): 2.07
- Ratio of change vs. control, Igf2 ([6]; gene Igf2, MDX + AHK1, 5 weeks, tibialis anterior, untreated MDX 22.31): 9.78
- Ratio of change vs. control, Igfbp3 ([6]; gene Igfbp3, MDX + AHK1, 5 weeks, tibialis anterior, untreated MDX 1.77): 1.34
- Ratio of change vs. control, Igfbp5 ([6]; gene Igfbp5, MDX + AHK1, 5 weeks, tibialis anterior, untreated MDX 2.52): 1.43
- Ratio of change vs. control, Ikbkb ([6]; gene Ikbkb, MDX + AHK1, 5 weeks, tibialis anterior, untreated MDX 2.72): 1.62
- Ratio of change vs. control, Il1b ([6]; gene Il1b, MDX + AHK1, 5 weeks, tibialis anterior, untreated MDX 17.77): 2.82
- Ratio of change vs. control, Il6 ([6]; gene Il6, MDX + AHK1, 5 weeks, tibialis anterior, untreated MDX 32.72): 9.76
- Ratio of change vs. control, Lmna ([6]; gene Lmna, MDX + AHK1, 5 weeks, tibialis anterior, untreated MDX 5.29): 2.52
- Ratio of change vs. control, Mapk3 ([6]; gene Mapk3, MDX + AHK1, 5 weeks, tibialis anterior, untreated MDX 2.61): 1.69
- Ratio of change vs. control, Mmp9 ([6]; gene Mmp9, MDX + AHK1, 5 weeks, tibialis anterior, untreated MDX 4.51): 2.01
- Ratio of change vs. control, Musk ([6]; gene Musk, MDX + AHK1, 5 weeks, tibialis anterior, untreated MDX 3.51): 2.00
- Ratio of change vs. control, Myf5 ([6]; gene Myf5, MDX + AHK1, 5 weeks, tibialis anterior, untreated MDX 3.40): 2.13
- Ratio of change vs. control, Myod1 ([6]; gene Myod1, MDX + AHK1, 5 weeks, tibialis anterior, untreated MDX 4.27): 1.28
- Ratio of change vs. control, Myog ([6]; gene Myog, MDX + AHK1, 5 weeks, tibialis anterior, untreated MDX 17.36): 3.24
- Ratio of change vs. control, Nfkb1 ([6]; gene Nfkb1, MDX + AHK1, 5 weeks, tibialis anterior, untreated MDX 2.45): 1.67
- Ratio of change vs. control, Pax3 ([6]; gene Pax3, MDX + AHK1, 5 weeks, tibialis anterior, untreated MDX 2.16): 2.48
- Ratio of change vs. control, Pax7 ([6]; gene Pax7, MDX + AHK1, 5 weeks, tibialis anterior, untreated MDX 3.82): 2.55
- Ratio of change vs. control, Ppargc1b ([6]; gene Ppargc1b, MDX + AHK1, 5 weeks, tibialis anterior, untreated MDX 1.77): 1.23
- Ratio of change vs. control, Prkaa1 ([6]; gene Prkaa1, MDX + AHK1, 5 weeks, tibialis anterior, untreated MDX 2.33): 1.55
- Ratio of change vs. control, Prkag3 ([6]; gene Prkag3, MDX + AHK1, 5 weeks, tibialis anterior, untreated MDX 2.52): 2.68
- Ratio of change vs. control, Rhoa ([6]; gene Rhoa, MDX + AHK1, 5 weeks, tibialis anterior, untreated MDX 2.30): 1.80
- Ratio of change vs. control, Rps6kb1 ([6]; gene Rps6kb1, MDX + AHK1, 5 weeks, tibialis anterior, untreated MDX 1.77): 1.25
- Ratio of change vs. control, Tgfb1 ([6]; gene Tgfb1, MDX + AHK1, 5 weeks, tibialis anterior, untreated MDX 6.51): 3.61
- Ratio of change vs. control, Tnf ([6]; gene Tnf, MDX + AHK1, 5 weeks, tibialis anterior, untreated MDX 15.01): 10.27
- Ratio of change vs. control, Tnnc1 ([6]; gene Tnnc1, MDX + AHK1, 5 weeks, tibialis anterior, untreated MDX 25.00): 4.53
- Ratio of change vs. control, Tnnt1 ([6]; gene Tnnt1, MDX + AHK1, 5 weeks, tibialis anterior, untreated MDX 12.09): 3.37
- Ratio of change vs. control, Utrn ([6]; gene Utrn, MDX + AHK1, 5 weeks, tibialis anterior, untreated MDX 2.03): 1.35
- number of genes the expression of which was increased with respect to control (at least 1.75-fold) ([6]; mdx mice treated 5 weeks, 84 genes analyzed, 40 in untreated mdx): 20
